Laboratory results reported in ChEMBL document CHEMBL2434968, “The thermodynamic basis for the use of lipophilic efficiency (LipE) in enthalpic optimizations” (Bioorg Med Chem Lett, 2013).

How the values were obtained:
Protease = Protease (Human immunodeficiency virus 1, UniProt Q9YQ12); assay: Binding affinity to HIV1 protease by ITC analysis
Cathepsin D = Cathepsin D (Homo sapiens, UniProt P07339); assay: Inhibition of cathepsin D (unknown origin)
[1] = Inhibition of pepsin (unknown origin); set-up: species or system Homo sapiens

Chain of Protease (Q9YQ12 whole entry): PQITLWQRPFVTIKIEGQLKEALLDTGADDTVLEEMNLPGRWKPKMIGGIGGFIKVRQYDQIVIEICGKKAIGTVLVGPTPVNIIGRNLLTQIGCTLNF
Chain of Cathepsin D (P07339 65-162 limits assumed): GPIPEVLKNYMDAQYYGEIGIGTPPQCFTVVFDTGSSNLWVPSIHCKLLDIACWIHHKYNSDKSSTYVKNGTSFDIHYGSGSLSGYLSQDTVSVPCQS
Chain of Cathepsin D (P07339 169-412 limits assumed): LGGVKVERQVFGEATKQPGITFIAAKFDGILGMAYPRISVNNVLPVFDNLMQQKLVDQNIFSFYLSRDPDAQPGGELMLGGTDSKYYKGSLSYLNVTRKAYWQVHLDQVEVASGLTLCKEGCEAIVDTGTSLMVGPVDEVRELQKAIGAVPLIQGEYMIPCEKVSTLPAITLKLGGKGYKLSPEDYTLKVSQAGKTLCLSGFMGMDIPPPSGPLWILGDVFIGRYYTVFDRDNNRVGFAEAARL

Kd (Protease) [nM] | Kd (Cathepsin D) [nM] | Kd [1] [nM] | SMILES
0.013 | – | – | CSC[C@H](NC(=O)COc1cccc2cnccc12)C(=O)N[C@@H](Cc1ccccc1)[C@H](O)C(=O)N1CSC(C)(C)C1C(=O)N[C@H]1c2ccccc2C[C@H]1O (stereo partly drawn)
0.021 | – | – | CC1(C)SCN(C(=O)[C@@H](O)[C@H](Cc2ccccc2)NC(=O)[C@H](CS(C)(=O)=O)NC(=O)COc2cccc3cnccc23)C1C(=O)N[C@H]1c2ccccc2C[C@H]1O (stereo partly drawn)
11.8 | 142 | 850 | CC1(C)SCN(C(=O)[C@@H](O)[C@H](Cc2ccccc2)NC(=O)COc2ccccc2)C1C(=O)N[C@H]1c2ccccc2C[C@H]1O (stereo partly drawn)
0.14 | 22 | 345 | Cc1cccc(C)c1OCC(=O)N[C@@H](Cc1ccccc1)[C@H](O)C(=O)N1CSC(C)(C)C1C(=O)N[C@H]1c2ccccc2C[C@H]1O (stereo partly drawn)
